# Reference: PubChem BioAssay AID1963841 (Molecular Pharmacology Branch, DTP, NCI, 2024)
# Test system: 439559-082-T-J2-PDC spheroid viability
# Test: Anticancer human tumor 439559-082-T-J2-PDC patient-derived colon adenocarcinoma cell line growth inhibition [POLQ]
# Settings: spheroids with HUVEC and MSC; for IC50: curve of first compound; for viability, T/C: stronger effect = lower value
# Procedure: Multicellular complex tumor spheroid response to Polymerase (POL) inhibitors (novobiocin, ART-558, RP6685) in combination with a variety of drugs and investigational agents in selected tumor cell lines
# The POL inhibitors (novobiocin, ART-558, and RP6685) were evaluated both individually and in combination with standard of care and investigational anticancer small molecules within a complex spheroid model of solid tumors. . Complex spheroids include a stromal component modeled by human endothelial cells (HUVEC) and fibroblasts modeled by human mesenchymal stem cells (MSCs). The concentration ranges selected for each drug and investigational agent were based upon clinically achievable concentrations if the clinical Cmax of the agent was known.
# Compounds. The drugs and investigational agents: novobiocin (NSC847541), ART-558 (NSC835418), RP-6685 (NSC848927), peposertib (NSC802822), ceralasertib (NSC780249), elimusertib (NSC800525), camonsertib (NSC841442), AZD-1390 (NSC803789), olaparib (NSC753686), talazoparib (NSC767125), rucaparib (NSC756644), sotorasib (NSC818433), MRTX-1133 (NSC836407), SN-38 (NSC673596), topotecan (NSC609699), epotoside (NSC141540), doxorubicin (NSC123127), gemcitabine (NSC613327), 5-fluorouracil (NSC19893), paclitaxel (NSC125973), vemurafenib (NSC761431), MSA-2 (NSC828583), SN-011 (NSC837082), adavosertib (NSC754352), prexasertib (NSC758257), carboplatin (NSC241240) and oxaliplatin (NSC266046), were obtained from the National Cancer Institute (NCI) Developmental Therapeutics Program Chemical Repository (21). The FDA-approved anticancer drug set is available from the Developmental Therapeutics Program at https://dtp.cancer.gov/organization/dscb/obtaining/. […] The stock solutions were prepared in dimethyl sulfoxide (DMSO, Sigma-Aldrich, St. Louis, MO, cat. D2650), except for the platinum compounds which were prepared in saline (Quality Biological, Gaithersburg, MD, cat. 114-055-101), at 800-fold the tested concentration and stored at -70 degrees C prior to their use. All drugs and investigational agents were tested over a range starting from a high concentration at or near the clinical Cmax and decreasing in half-log increments. If the clinical Cmax for an agent had not been determined, the highest concentration tested was 10 microM, except for SN-38, which was tested at a high concentration of 1 microM.
# Cell Culture. All cells were maintained in an incubator at 37 degrees C and 5% CO2 with 95% humidity. The PDC lines were cultured according to standard operating procedures established by the NCI PDMR (https://pdmr.cancer.gov). Table 3 of the manuscript, lists the cell lines along with the number of the three cell types plated to form the mct-spheroids and media for tumor cell growth. After thawing, all PDC lines, except 997537-175-T-J1-PDC and 415267-285-R-J2-PDC, were cultured in Matrigel-coated flasks prepared with a working solution of 1X Ham's F-12 nutrient mix, without supplementation (Thermo Fisher Scientific, cat. 11765054), 100 U/mL penicillin-streptomycin (Thermo Fisher Scientific, cat. 15140122), and 2.5% Matrigel (Corning Inc., Corning, NY, cat. 354248) for the first three passages. The two PDC lines 997537-175-T-J1-PDC and 415267-285-R-J2-PDC were cultured on uncoated flasks. The 857933-349-R-J2-PDC line was cultured in 6C/Colon 1B media containing advanced DMEM/F-12 (Thermo Fisher Scientific, cat. 12634028), 10 mM HEPES (Thermo Fisher Scientific, cat. 15630080), 1X GlutaMAX supplement (Thermo Fisher Scientific, cat. 35050061), 0.1 mg/mL primocin (InvivoGen, San Diego, CA, cat. ant-pm-2), 10% defined fetal bovine serum, heat inactivated (HyClone Laboratories Inc., Logan, UT, cat. SH30070.03HI), 50% L-WRN conditioned media (ATCC, cat. CRL-3276), 1.25 mM N-Acetyl-L-cysteine (Sigma-Aldrich, cat. A9165), 10 mM nicotinamide (Sigma-Aldrich, cat. N0636), 1X B-27 supplement (Thermo Fisher Scientific, cat. 17504044), 1X N-2 supplement (Thermo Fisher Scientific, cat. […]
# 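Note: spheroids exposed to compounds for seven days before readout.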
# 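Throughout, for viability, T/C: 100% = DMSO vehicle control viability.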
smiles,measurement,setting,value
CC1COCCN1c1cc(-c2ccnn2C)c2ccnc(-c3ccn[nH]3)c2n1 (configuration not stated) + COC1C(OC(N)=O)C(O)C(Oc2ccc3c(O)c(NC(=O)c4ccc(O)c(CC=C(C)C)c4)c(=O)oc3c2C)OC1(C)C,IC50,second compound 0.0316 µM,0.257 µM
same,IC50,second compound 0.1 µM,0.299 µM
same,IC50,second compound 0.316 µM,0.353 µM
same,IC50,second compound 1 µM,0.274 µM
same,IC50,second compound 3.16 µM,0.276 µM
same,IC50,second compound 10 µM,0.298 µM
same,"viability, T/C","second compound 0.0316 µM, first compound 0.0316 µM",85.6%
same,"viability, T/C","second compound 0.0316 µM, first compound 0.1 µM",66.5%
same,"viability, T/C","second compound 0.0316 µM, first compound 0.316 µM",44.7%
same,"viability, T/C","second compound 0.0316 µM, first compound 1 µM",42%
same,"viability, T/C","second compound 0.0316 µM, first compound 3.16 µM",23.3%
same,"viability, T/C","second compound 0.0316 µM, first compound 10 µM",37%
same,"viability, T/C","second compound 0.1 µM, first compound 0.0316 µM",82.8%
same,"viability, T/C","second compound 0.1 µM, first compound 0.1 µM",75.4%
same,"viability, T/C","second compound 0.1 µM, first compound 0.316 µM",47.4%
same,"viability, T/C","second compound 0.1 µM, first compound 1 µM",41.3%
same,"viability, T/C","second compound 0.1 µM, first compound 3.16 µM",27%
same,"viability, T/C","second compound 0.1 µM, first compound 10 µM",38.9%
same,"viability, T/C","second compound 0.316 µM, first compound 0.0316 µM",92.5%
same,"viability, T/C","second compound 0.316 µM, first compound 0.1 µM",77.4%
same,"viability, T/C","second compound 0.316 µM, first compound 0.316 µM",49.5%
same,"viability, T/C","second compound 0.316 µM, first compound 1 µM",43.1%
same,"viability, T/C","second compound 0.316 µM, first compound 3.16 µM",25.2%
same,"viability, T/C","second compound 0.316 µM, first compound 10 µM",39.4%
same,"viability, T/C","second compound 1 µM, first compound 0.0316 µM",92.1%
same,"viability, T/C","second compound 1 µM, first compound 0.1 µM",75.2%
same,"viability, T/C","second compound 1 µM, first compound 0.316 µM",44.9%
same,"viability, T/C","second compound 1 µM, first compound 1 µM",41.9%
same,"viability, T/C","second compound 1 µM, first compound 3.16 µM",24.2%
same,"viability, T/C","second compound 1 µM, first compound 10 µM",39.7%
same,"viability, T/C","second compound 3.16 µM, first compound 0.0316 µM",94.3%
same,"viability, T/C","second compound 3.16 µM, first compound 0.1 µM",72.1%
same,"viability, T/C","second compound 3.16 µM, first compound 0.316 µM",45.1%
same,"viability, T/C","second compound 3.16 µM, first compound 1 µM",42.4%
same,"viability, T/C","second compound 3.16 µM, first compound 3.16 µM",25.2%
same,"viability, T/C","second compound 3.16 µM, first compound 10 µM",37.7%
same,"viability, T/C","second compound 10 µM, first compound 0.0316 µM",88%
same,"viability, T/C","second compound 10 µM, first compound 0.1 µM",78.5%
same,"viability, T/C","second compound 10 µM, first compound 0.316 µM",46.4%
same,"viability, T/C","second compound 10 µM, first compound 1 µM",42.9%
same,"viability, T/C","second compound 10 µM, first compound 3.16 µM",25.4%
same,"viability, T/C","second compound 10 µM, first compound 10 µM",37.2%
